We go through 2 molecules from patent publication US20240041042A1, “1-(PYRIDYL)-5-AZINYLPYRAZOLE DERIVATIVES, AND THEIR USE FOR CONTROL OF UNDESIRED PLANT GROWTH” (Bayer Aktiengesellschaft, priority 2020, published 2024).

Holding throughout (format): in vivo
For data set [1], the system named is Alopecurus myosuroides (ALOMY). The data set is described as follows: Post-emergence herbicidal action against ALOMY. To be noted: visual rating about 3 weeks after treatment vs untreated controls (100% = plants have died, 0% = like control plants). The method in brief:
(§1)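 Values are percent visual activity (0% like control, 100% plants dead) after about 3 weeks in the greenhouse. Treatment: post-emergence spray at one-leaf stage, 600 l/ha spray volume, 0.5% additive, doses 320 g/ha or lower.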

The test system of data set [2] is Echinochloa crus-galli (ECHCG). As to the kind of experiment: Pre-emergence herbicidal action against ECHCG. The method in brief:
(§2)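 Application rates ran to 320 g/ha or lower, with several dosages tested on the same weeds. The compound, as wettable powder or emulsion concentrate, is sprayed pre-emergence onto soil over sown seeds; greenhouse growth follows, and effect is rated visually after roughly 3 weeks.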

Data set [3] deals with Alopecurus myosuroides (ALOMY). The data set is described as follows: Pre-emergence herbicidal action against ALOMY. Particulars: scored visually after about 3 weeks, 100% = plants have died. In short, it runs like this: as §2
The subject of data set [4] is Digitaria sanguinalis (DIGSA). The data set is described as follows: Pre-emergence herbicidal action against DIGSA. From the text: Seeds of monocotyledonous and dicotyledonous weed plants and crop plants are placed in plastic or organic planting pots and covered with soil. The compounds of the invention, formulated in the form of wettable powders (WP) or as emulsion concentrates (EC), are then applied to the surface of the covering soil as aqueous suspension or emulsion with addition of 0.5% additive at a water application rate equivalent to 600 l/ha. After the treatment, the pots are placed in a greenhouse and kept under good growth conditions for the trial plants. After about 3 weeks, the effect of the preparations is scored visually in comparison with untreated controls as percentages. For example, 100% activity=the plants have died, 0% activity=like control plants.
Tables A1 to A13 below show the effects of selected compounds of the general formula (I) on various harmful plants and at an application rate corresponding to 320 g/ha or lower, which were obtained by the experimental procedure mentioned above. The appendices “a”, “b” and “c” give differentiation by dosage used with otherwise the same harmful plants tested.

Data set [5] concerns Avena fatua (AVEFA). The data set is described as follows: Post-emergence herbicidal action against AVEFA. To be noted: visual rating about 3 weeks after treatment. The method in brief: as §1
The subject of data set [6] is Verconica persica (VERPE). As to the kind of experiment: Post-emergence herbicidal action against VERPE. In short, it runs like this: as §1
Data set [7] has as its system Viola tricolor (VIOTR). The data set is described as follows: Pre-emergence herbicidal action against VIOTR. In short, it runs like this: as §2
Data set [8] has as its system Abutilon theophrasti (ABUTH). As to the kind of experiment: Post-emergence herbicidal action against ABUTH. To be noted: visual rating about 3 weeks after treatment vs untreated controls (100% = plants have died, 0% = like control plants). In short, it runs like this:
as §1

Data set [9] relates to Digitaria sanguinalis (DIGSA). The data set is described as follows: Post-emergence herbicidal action against DIGSA. To be noted: 80 g/ha, visual rating about 3 weeks after treatment. The method in brief: as §1
Data set [10] deals with Amaranthus retroflexus (AMARE). As to the kind of experiment: Pre-emergence herbicidal action against AMARE. Particulars: visual scoring after about 3 weeks vs untreated controls. The method in brief:
as §2

For data set [11], the system named is Amaranthus retroflexus (AMARE). The data set is described as follows: Post-emergence herbicidal action against AMARE. The method in brief: as §1
The test system of data set [12] is Polygonum convolvulus (POLCO). The data set is described as follows: Pre-emergence herbicidal action against POLCO. In short, it runs like this: as §2
Data set [13] has as its system Matricaria inodora (MATIN). The data set is described as follows: Pre-emergence herbicidal action against MATIN. The method in brief:
as §2

The subject of another data set is Oryza sativa (ORYSA). Particulars: crop plant compatibility, 20 g/ha, effect vs untreated controls. The method in brief: (§3)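 Visual rating (% effect vs. untreated plants; 100% = plant death) made about 3 weeks after treatment. Plants had been sprayed at one-leaf stage, 2–3 weeks post-sowing, with aqueous WP/EC preparations containing 0.5% additive, 600 l/ha water volume; a, b, c mark dose levels.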

A further data set concerns Zea mays (ZEAMX). In short, it runs like this:
as §3

The subject of data set [14] is Matricaria inodora (MATIN). As to the kind of experiment: Post-emergence herbicidal action against MATIN. To be noted: dosage 320 g/ha. The method in brief: as §1
The subject of data set [15] is Verconica persica (VERPE). The data set is described as follows: Pre-emergence herbicidal action against VERPE. To be noted: dosage 320 g/ha. The method in brief: as §2
Data set [16] relates to Setaria viridis (SETVI). The data set is described as follows: Post-emergence herbicidal action against SETVI. Particulars: dosage 320 g/ha. In short, it runs like this: as §1
Data set [17] concerns Setaria viridis (SETVI). The data set is described as follows: Pre-emergence herbicidal action against SETVI. Particulars: dosage 320 g/ha. The method in brief: as §2
In data set [18] the test system is Lolium rigidum (LOLRI). The data set is described as follows: Post-emergence herbicidal action against LOLRI. The method in brief:
as §1

Data set [19] concerns Viola tricolor (VIOTR). The data set is described as follows: Post-emergence herbicidal action against VIOTR. The method in brief:
as §1

Data set [20] has as its system Avena fatua (AVEFA). As to the kind of experiment: Pre-emergence herbicidal action against AVEFA. Particulars: 320 g/ha, visual scoring after about 3 weeks vs untreated controls. In short, it runs like this:
as §2

The subject of data set [21] is Echinochloa crus-galli (ECHCG). The data set is described as follows: Post-emergence herbicidal action against ECHCG. In short, it runs like this:
as §1

In data set [22] the test system is Pharbitis purpurea (PHBPU). As to the kind of experiment: Post-emergence herbicidal action against PHBPU. In short, it runs like this:
as §1

Data set [23] has as its system Lolium rigidum (LOLRI). The data set is described as follows: Pre-emergence herbicidal action against LOLRI. Particulars: dosage 320 g/ha. The method in brief:
as §2

Setting [24] is: 80 g/ha, visual scoring after about 3 weeks vs untreated controls.

`CC(C)=NOC(=O)COc1nn(-c2ncccc2F)c(-c2ccc(F)nc2)c1Br` [Example I-45]: the “Post-emergence action against ALOMY in %” value in [1] (80 g/ha) turned out to be 90%. Further, in data set [2] (dosage 80 g/ha), the “Pre-emergence action against ECHCG in %” value was 90%. The “Pre-emergence action against ALOMY” value in data set [3] (80 g/ha) was determined as 90%. The “Pre-emergence action against DIGSA in %” value in data set [4] (setting [24]) is listed as 100%. For the same molecule, the “Post-emergence action against AVEFA in %” value in the data set on Avena fatua (AVEFA) [5] (80 g/ha) turned out to be 80%. Further, the “Post-emergence action against VERPE in %” value in data set [6] (dosage 80 g/ha) amounted to 80%. The “Pre-emergence action against VIOTR in %” value with Viola tricolor (VIOTR) [7] (dosage 80 g/ha) is 90%. Further, in data set [8] (80 g/ha), the “Post-emergence action against ABUTH in %” value worked out at 80%. Besides, in data set [9], the “Post-emergence action against DIGSA in %” value was 90%. In addition, the “Pre-emergence action against AMARE in %” value in data set [10] (80 g/ha) is 90%. In addition, the “Post-emergence action against AMARE in %” value in data set [11] (80 g/ha, visual rating about 3 weeks after treatment vs untreated controls (100% = plants have died, 0% = like control plants)) was determined as 80%. In addition, the “Pre-emergence action against POLCO in %” value in [12] (dosage 80 g/ha) is 90%. Further, the “Pre-emergence action against MATIN in %” value in [13] (dosage 80 g/ha) turned out to be 80%. In the data set with Oryza sativa (ORYSA), the “Post-emergence action against ORYSA in %” value is 10%. Moreover, the “Post-emergence action against ZEAMX in % (crop plant compatibility)” value with Zea mays (ZEAMX) (20 g/ha, ZEAMX, effect in comparison to untreated controls) is on record as 0%. Further, the “Post-emergence action against ZEAMX in %” value with Zea mays (ZEAMX) (crop plant compatibility, 80 g/ha, effect vs untreated controls) amounted to 10%.

For `CCOC(=O)COc1nn(-c2ccccn2)c(-c2ccnc(F)c2)c1Br` [Example I-01, Ethyl {[4-bromo-5-(2-fluoropyridin-4-yl)-1-(pyridin-2-yl)-1H-pyrazol-3-yl]oxy}acetate], the “Post-emergence action against ALOMY in %” value in data set [1] (80 g/ha) and in data set [1] (320 g/ha) was 100% in each case. Besides, the “Pre-emergence action against ECHCG in %” value in [2] (dosage 320 g/ha) is given as 90%. In addition, the “Post-emergence action against MATIN in %” value in data set [14] came to 90%. Besides, in [15], the “Pre-emergence action against VERPE in %” value is listed as 90%. For the same molecule, the “Post-emergence action against SETVI in %” value in the data set with Setaria viridis (SETVI) [16] stood at 80%. In the data set with Setaria viridis (SETVI) [17], the “Pre-emergence action against SETVI in %” value is 100%. In addition, the “Post-emergence action against LOLRI in %” value in the data set on Lolium rigidum (LOLRI) [18] (dosage 80 g/ha) is recorded as 80%; with Lolium rigidum (LOLRI) [18] (dosage 320 g/ha), 90%. In addition, the “Post-emergence action against VIOTR in %” value in the data set on Viola tricolor (VIOTR) [19] (80 g/ha) is recorded as 90%; in the data set on Viola tricolor (VIOTR) [19] (320 g/ha), 100%. In addition, the “Pre-emergence action against ALOMY” value in data set [3] (320 g/ha) is 100%. In addition, the “Pre-emergence action against DIGSA in %” value in [4] (setting [24]) is 80%; in data set [4] (dosage 320 g/ha), 100%. Further, in the data set with Avena fatua (AVEFA) [20], the “Pre-emergence action against AVEFA in %” value is on record as 80%. Also, the “Post-emergence action against AVEFA in %” value is on record as 90% in the data set with Avena fatua (AVEFA) [5] (80 g/ha) and 100% in the data set on Avena fatua (AVEFA) [5] (320 g/ha). Besides, the results for the “Post-emergence action against ECHCG in %” value in data set [21] (dosage 80 g/ha) and in [21] (dosage 320 g/ha) were 80% and 90%, respectively. Further, the “Post-emergence action against VERPE in %” value in [6] (320 g/ha, VERPE) is recorded as 90%; in data set [6] (dosage 80 g/ha), 80%. In addition, the “Pre-emergence action against VIOTR in %” value in the data set on Viola tricolor (VIOTR) [7] (320 g/ha, Viola tricolor) is given as 90%. Besides, the “Post-emergence action against ABUTH in %” value in [8] (320 g/ha) stood at 80%. In addition, the “Pre-emergence action against AMARE in %” value in data set [10] (80 g/ha) turned out to be 80%; in data set [10] (320 g/ha) it was 90%. Also, the “Post-emergence action against AMARE in %” value in [11] (320 g/ha, visual rating about 3 weeks after treatment) is on record as 80%. Also, the “Pre-emergence action against POLCO in %” value in [12] (dosage 320 g/ha) is listed as 90%. In addition, the “Pre-emergence action against MATIN in %” value in data set [13] (dosage 320 g/ha) was 100%. Besides, the “Post-emergence action against PHBPU in %” value in [22] (dosage 80 g/ha) and in [22] (dosage 320 g/ha) was 80% each time. Moreover, in the data set with Lolium rigidum (LOLRI) [23], the “Pre-emergence action against LOLRI in %” value worked out at 100%.
